Measured values from patent US6028195A, “Piperazine derivatives and process for the preparation thereof” (Samjin Pharmaceutical Co., Ltd., priority 1996, dated 2000).
In brackets after ≈: the same amount, converted by molar mass. Read-outs that look alike come from different tables or passages of the source.

Tests used:
Format in all cases: cell-based
SKMEL-2 (human melanoma) = test: SRB assay, in vitro antitumor effect against SKMEL-2; conditions: SK-MEL-2, 48 hours; for IC50: Homo sapiens, read-out: ED50 (the source's name)
Description: (§1) In vitro antitumor effect against human tumor cell lines.
(§2) b. 5×10^3 ~2×10^4 cells were added into each well of 96-well plate and cultured in 5% CO2 incubator, at 37° C., for 24 hours.
(§3) c. Each sample drug was dissolved in a little DMSO and diluted with the used medium to a prescribed concentration for experiments, wherein the final concentration of DMSO was controlled below 0.5%.
(§4) d. Medium of each well cultured for 24 hours as above b. was removed by aspiration. Each 200 μl of drug samples prepared in c. was added into each well and the wells were cultured for 48 hours. Tz(time zero) plates were collected at the point of time drugs were added.
(§5) e. According to the SRB assay method, cell fixing with TCA, staining with 0.4% SRB solution, washing with 1% acetic acid and elution of dye with 10 mM Tris solution were carried out on Tz plates and culture-ended plates, and then, OD values were measured at 520 nm.
(§6) a. Time zero(Tz) value was determined with measuring the SRB protein value at the point of time drugs were added.
(§7) b. Control value(C) was determined with the OD value of an well untreated with drug.
(§8) c. Drug-treated test value(T) was determined with the OD value of drug-treated well.
(§9) d. Effects of drugs were estimated with growth stimulation, net growth inhibition, net killing etc. calculated from Tz, C and T.
(§10) e. If T≥Tz, cellular response function was calculated by 100×(T-Tz)/(C-Tz), and if T<Tz, by 100×(T-Tz)/Tz.

XF 498 (human CNS) = test: SRB assay, in vitro antitumor effect against XF 498; conditions: for IC50: Homo sapiens
Description: as §1, §2, §3, §4, §5, §6, §7, §8, §9, §10

[1] = test system: A549 (human non-small lung cell); test: SRB assay, in vitro antitumor effect against A549; conditions: A549, 48 hours; for IC50: Homo sapiens, read-out: ED50 (the source's name)
Description: as §1, §2, §3, §4, §5, §6, §7, §8, §9, §10

HCT-15 (human colon) = test: SRB assay, in vitro antitumor effect against HCT-15; conditions: HCT 15, 48 hours; for IC50: Homo sapiens, read-out: ED50 (the source's name)
Description: as §1, §2, §3, §4, §5, §6, §7, §8, §9, §10

SKOV-3 (human ovarian) = test: SRB assay, in vitro antitumor effect against SKOV-3; conditions: SK-OV-3, 48 hours; for IC50: Homo sapiens, read-out: ED50 (the source's name)
Description: as §1, §2, §3, §4, §5, §6, §7, §8, §9, §10

[2] = XF498, XF-498, 48 hours, read-out: ED50 (the source's name)

IC50 (SKMEL-2 (human melanoma)) | IC50 (XF 498 (human CNS); [2]) | IC50 [1] | IC50 (HCT-15 (human colon)) | IC50 (SKOV-3 (human ovarian)) | Compound | IC50 (XF 498 (human CNS); XF498, 48 h, read-out: ED50) | ED50 (SKMEL-2 (human melanoma)) | ED50 (XF 498 (human CNS); XF-498, 48 hours) | ED50 [1] | ED50 (HCT-15 (human colon)) | ED50 (SKOV-3 (human ovarian))
3.47 µg/mL (≈ 7.47 µM) | 0.66 µg/mL (≈ 1.42 µM) | 4.54 µg/mL (≈ 9.77 µM) | 4.21 µg/mL (≈ 9.06 µM) | 3.02 µg/mL (≈ 6.5 µM) | COc1cc(OC)cc(N2CCN(C(=O)N(c3cc4ccccc4nc3OC)C(C)C)CC2)c1 [Example 100] |  |  |  |  |  | 
0.49 µg/mL (≈ 1.21 µM) | 0.36 µg/mL (≈ 0.89 µM) | 0.52 µg/mL (≈ 1.29 µM) | 0.33 µg/mL (≈ 0.816 µM) | 0.46 µg/mL (≈ 1.14 µM) | COc1nc2ccccc2cc1N(C)C(=O)N1CCN(c2cc(C)cc(C)c2)CC1 [Example 103, 1-[N-(2-Methoxyquinolin-3-yl)-N-methylaminocarbonyl]-4-(3,5-dimethylphenyl)piperazine] |  |  |  |  |  | 
0.22 µg/mL (≈ 0.492 µM) | 2.07 µg/mL (≈ 4.63 µM) | 0.56 µg/mL (≈ 1.25 µM) | 0.61 µg/mL (≈ 1.36 µM) | 6.43 µg/mL (≈ 14.4 µM) | COc1nc2ccccc2cc1NC(=S)N1CCN(c2cc(Cl)cc(Cl)c2)CC1 [Example 112, 1-[(2-Methoxyquinolin-3-yl)aminothiocarbonyl]-4-(3,5-dichlorophenyl)piperazine] |  |  |  |  |  | 
0.53 µg/mL (≈ 1.24 µM) | 0.61 µg/mL (≈ 1.42 µM) | 0.57 µg/mL (≈ 1.33 µM) | 0.57 µg/mL (≈ 1.33 µM) | 0.94 µg/mL (≈ 2.19 µM) | CCN(C(=O)N1CCN(c2cc(OC)cc(OC)c2)CC1)c1cc(C)c(C)nc1OC [Example 133, 1-[N-Ethyl-N-(5,6-dimethyl-2-methoxypyridin-3-yl)aminocarbonyl]-4-(3,5-dimethoxyphenyl)piperazine] |  |  |  |  |  | 
0.03 µg/mL (≈ 0.0678 µM) | 0.05 µg/mL (≈ 0.113 µM) | 0.01 µg/mL (≈ 0.0226 µM) | 0.05 µg/mL (≈ 0.113 µM) | 0.07 µg/mL (≈ 0.158 µM) | CCCc1nc(OC)c(N(C)C(=O)N2CCN(c3cc(OC)cc(OC)c3)CC2)cc1C [Example 148, 1-[N-(2-Methoxy-5-methyl-6-propylpyridin-3-yl)-N-methylaminocarbonyl]-4-(3,5-dimethoxyphenyl)piperazine] |  |  |  |  |  | 
0.52 µg/mL (≈ 1.25 µM) | 0.23 µg/mL (≈ 0.555 µM) | 0.42 µg/mL (≈ 1.01 µM) | 0.37 µg/mL (≈ 0.892 µM) | 0.56 µg/mL (≈ 1.35 µM) | COc1nc(C)c(C(C)O)cc1NC(=S)N1CCN(c2cc(C)cc(C)c2)CC1 (stereo not drawn) [Example 64, 1-{[5-(1-Hydroxyethyl)-2-methoxy-6-methylpyridin-3-yl]aminothiocarbonyl}-4-(3,5-dimethylphenyl)piperazine] |  |  |  |  |  | 
0.48 µg/mL (≈ 1.29 µM) | 2.09 µg/mL (≈ 5.6 µM) | 0.57 µg/mL (≈ 1.53 µM) | 0.64 µg/mL (≈ 1.71 µM) | 1.26 µg/mL (≈ 3.37 µM) | COc1cc(C)c(C)cc1NC(=S)N1CCN(c2ccccc2F)CC1 [Example 202, 1-[(4,5-Dimethyl-2-methoxyphenyl)amminothiocarbonyl]-4-(2-fluorophenyl)piperazine] |  |  |  |  |  | 
0.21 µg/mL (≈ 0.53 µM) | 0.11 µg/mL (≈ 0.277 µM) | 0.15 µg/mL (≈ 0.378 µM) | 0.11 µg/mL (≈ 0.277 µM) | 0.07 µg/mL (≈ 0.177 µM) | CCCc1cc(NC(=O)N2CCN(c3cc(C)cc(C)c3)CC2)c(OC)nc1C [Example 9, 1-[(2-Methoxy-6-methyl-5-propylpyridin-3-yl)aminocarbonyl]-4-(3,5-dimethylphenyl)piperazine] |  |  |  |  |  | 
0.06 µg/mL (≈ 0.157 µM) | 0.47 µg/mL (≈ 1.23 µM) | 0.09 µg/mL (≈ 0.236 µM) | 0.4 µg/mL (≈ 1.05 µM) | 0.28 µg/mL (≈ 0.734 µM) | COc1cc(C)c(C)cc1N(C)C(=O)N1CCN(c2cc(C)cc(C)c2)CC1 [Example 191, 1-[N-(4,5-Dimethyl-2-methoxyphenyl)-N-methylaminocarbonyl]-4-(3,5-dimethylphenyl)piperazine] |  |  |  |  |  | 
 |  |  |  |  | 1-{[2-(Pyridin-2-yl)quinolin-4-yl]aminocarbonyl}-4-(3,5-dimethoxyphenyl)piperazine [Example 128] |  | 0.42 µg/mL | 0.44 µg/mL | 0.40 µg/mL | 0.51 µg/mL | 0.37 µg/mL
0.26 µg/mL (≈ 0.664 µM) | 1.01 µg/mL (≈ 2.58 µM) | 0.5 µg/mL (≈ 1.28 µM) | 0.44 µg/mL (≈ 1.12 µM) | 0.53 µg/mL (≈ 1.35 µM) | COc1cc(C)c(C)cc1NC(=S)N1CCN(c2cc(F)cc(F)c2)CC1 [Example 200, 1-[(4,5-Dimethyl-2-methoxyphenyl)aminothiocarbonyl]-4-(3,5-difluorophenyl)piperazine] |  |  |  |  |  | 

Compound | IC50 (SKMEL-2 (human melanoma)) | IC50 (XF 498 (human CNS); [2]) | IC50 [1] | IC50 (HCT-15 (human colon)) | IC50 (SKOV-3 (human ovarian)) | IC50 (XF 498 (human CNS); XF498, 48 h, read-out: ED50) | ED50 (SKMEL-2 (human melanoma)) | ED50 (XF 498 (human CNS); XF-498, 48 hours) | ED50 [1] | ED50 (HCT-15 (human colon)) | ED50 (SKOV-3 (human ovarian))
CCCc1nc(OC)c(NC(=S)N2CCN(c3cc(C)cc(C)c3)CC2)cc1C [Example 27, 1-[(2-Methoxy-5-methyl-6-propylpyridin-3-yl)aminothiocarbonyl]-4-(3,5-dimethylphenyl)piperazine] | 0.01 µg/mL (≈ 0.0242 µM) |  | 0.02 µg/mL (≈ 0.0485 µM) | 0.165 µg/mL (≈ 0.4 µM) | 0.11 µg/mL (≈ 0.267 µM) | 0.046 µg/mL (≈ 0.111 µM) |  |  |  |  | 
